# ChEMBL document CHEMBL1137247, “Derivatives of 7-amino-1,2,3,4-tetrahydroisoquinoline and isophthalic acids as novel fibrinogen receptor antagonists” (Bioorg Med Chem Lett, 2006)
# How the values were obtained:
# Plasma = test: Inhibition of ADP-induced platelet aggregation in human platelet-rich plasma by Born's method
# [1] = molecular target: Integrin alpha-IIb/beta-3 (Homo sapiens); test: Displacement of FITC-Fg from integrin alphaIIbbeta3 receptor expressed in human activated platelets
Structure (SMILES),IC50 (Plasma) [µM],IC50 [1] [µM]
O=C(O)CC(NC(=O)c1cc(C(=O)Nc2ccc3c(c2)CNCC3)cc([N+](=O)[O-])c1)c1ccccc1 (stereo unspecified),0.71,0.008
O=C(O)CCNC(=O)c1cc(C(=O)Nc2ccc3c(c2)CNCC3)cc([N+](=O)[O-])c1,2.3,0.032
COc1ccc(C(CC(=O)O)NC(=O)c2cccc(C(=O)Nc3ccc4c(c3)CNCC4)c2)cc1 (stereo unspecified),0.017,0.0008
COc1ccc(C(CC(=O)O)NC(=O)c2cc(C(=O)Nc3ccc4c(c3)CNCC4)cc([N+](=O)[O-])c2)cc1 (stereo unspecified),0.45,0.005
O=C(O)CCNC(=O)c1cccc(C(=O)Nc2ccc3c(c2)CNCC3)c1,0.078,0.009
O=C(O)CC(NC(=O)c1cccc(C(=O)Nc2ccc3c(c2)CNCC3)c1)c1ccccc1 (stereo unspecified),0.025,0.001
COc1ccc(C(CC(=O)O)NC(=O)c2cccc(C(=O)Nc3ccc4c(c3)CNCC4)c2)cc1OC (stereo unspecified),0.0116,0.0007
COc1ccc(C(CC(=O)O)NC(=O)c2cc(C(=O)Nc3ccc4c(c3)CNCC4)cc([N+](=O)[O-])c2)cc1OC (stereo unspecified),0.34,0.0037
